# Assay results reported in patent publication US9771394B2, “Antimicrobial polymyxins for treatment of bacterial infections” (priority 2014, dated 2017).
# Like-named read-outs stand apart in the source and are kept apart here. Starred links: 1 amine or outer side, 2 acyl side, 3 side chain; linkers in the order of their positions; H or OH if unused. Positions of bridges follow the written chain, without caps; N, C: chain ends. Non-standard residues stand in square brackets, D forms with d. Residues, ends and D or L forms follow the SMILES beside them. ξ: configuration not given here. *: point of attachment. X8 = NCC[C@H](OC(=O)Cc1ccc(-c2ccccc2)cc1)C(=O)*; X6 = NCC[C@H](OC(=O)c1ccc(-c2ccccc2)cc1)C(=O)*; X9 = CCC(C)(C)C(=O)OCCC(=O)O[C@@H](CCN)C(=O)*; X11 = CCCCOP(=O)(CC(=O)*)OCCCC; Thr(3ξ) = CC(O)[C@H](N)C(=O)O; X10 = O=C(C1CNCCN1[*:1])[*:2]; X7 = CC(=O)O[C@@H](CCN)C(=O)*; X1 = CCC(C)(C)C(=O)OCCC(=O)*; X2 = CCCC(C)OC(=O)CCC(=O)*; Dab = NCC[C@H](N)C(=O)O; Dap = NC[C@H](N)C(=O)O
# Experiments:
# [1] = tested on: P. aeruginosa PAE 1001; format: cell-based, Pseudomonas aeruginosa
# Excerpt: (§1) In vitro activity of compounds provided herein may be assessed by standard testing procedures such as the determination of minimum inhibitory concentration (MIC, μg/mL) just as described in “Methods for Dilution Antimicrobial Susceptibility Tests for Bacteria That Grow Aerobically; Approved Standard—Ninth Edition,” published in 2012 by the Clinical and Laboratory Standards Institute, Wayne, Pa., USA. Thus, bacterial colonies grown overnight on Mueller-Hinton Agar plate were selected and suspended in sterile saline to a turbidity of about 80% transmittance, as measured by a spectrophotometer. The suspension was diluted 200-fold with cation-adjusted Mueller-Hinton broth to serve as the inoculum for testing. Two-fold serial dilutions of the test compound were performed in 96-well master plate to arrive at desired concentration. Samples of 10 microliter from each well of the master plate were transferred into respective wells of 96-well assay plate. Bacterial inoculum (90 microliter) was introduced into each well of the assay plate. The assay plate was placed in the incubator at 35° C. for about 24 h (without agitation) followed by the MIC determination. MIC values were determined based on the presence or absence of bacterial growth in wells at the given test agent concentration. MIC value is defined as the lowest concentration of test antibiotic that prevents visible bacterial growth.
# (§2) The useful activity of exemplary compounds described herein against Gram-negative pathogens Pseudomonas aeruginosa, Escherichia coli, or Klebsiela pneumoniae is illustrated by the MIC data of Table 1.
# [2] = tested on: E. coli WECO 1003; format: cell-based, Escherichia coli
# Excerpt: as §1, §2
# [3] = tested on: K. pneumoniae KPN1004; format: cell-based, Klebsiela pneumoniae
# Excerpt: as §1, §2
# [4] = 35° C., about 24 h, cation-adjusted Mueller-Hinton broth
SMILES,"Antibacterial activity (MIC) P. aeruginosa PAE 1001 ([1]; PAE 1001, 24 h)","Antibacterial activity (MIC) E. coli WECO 1003 ([2]; WECO 1003, 24 h)","Antibacterial activity (MIC) K. pneumoniae KPN1004 ([3]; KPN1004, 24 h)","Antibacterial activity (MIC) P. aeruginosa PAE 1001 [1, 4]","Antibacterial activity (MIC) E. coli WECO 1003 [2, 4]","Antibacterial activity (MIC) K. pneumoniae KPN1004 [3, 4]"
CCCCOP(=O)(CC(=O)N[C@@H](CCN)C(=O)N[C@H](C(=O)N[C@@H](CCN)C(=O)N[C@H]1CCNC(=O)[C@H](C(C)O)NC(=O)[C@H](CCN)NC(=O)[C@H](CCN)NC(=O)[C@H](CC(C)C)NC(=O)[C@@H](Cc2ccccc2)NC(=O)[C@H](CCN)NC1=O)C(C)O)OCCCC (stereo partly drawn) [Example 30] (X11-[Dab][Thr(3ξ)][Dab][Dab][Dab][dF]L[Dab][Dab][Thr(3ξ)]; lactam 4-C),,,,2 µg/mL,2 µg/mL,4 µg/mL
CC(C)C[C@@H]1NC(=O)[C@@H](Cc2ccccc2)NC(=O)[C@H](CCN)NC(=O)[C@@H](NC(=O)[C@H](CCN)NC(=O)[C@@H](NC(=O)[C@H](CCN)OC(=O)Cc2ccc(-c3ccccc3)cc2)C(C)O)CCNC(=O)[C@H](C(C)O)NC(=O)[C@H](CCN)NC(=O)[C@H](CCN)NC1=O (stereo partly drawn) [Example 2] (X8-[Thr(3ξ)][Dab][Dab][Dab][dF]L[Dab][Dab][Thr(3ξ)]; lactam 3-C),4 µg/mL,8 µg/mL,2 µg/mL,,,
CC(C)C[C@@H]1NC(=O)[C@@H](Cc2ccccc2)NC(=O)[C@H](CCN)NC(=O)[C@@H](NC(=O)[C@H](CCN)NC(=O)[C@@H](NC(=O)[C@H](CCN)OC(=O)c2ccc(-c3ccccc3)cc2)C(C)O)CCNC(=O)[C@H](C(C)O)NC(=O)[C@H](CCN)NC(=O)[C@H](CCN)NC1=O (stereo partly drawn) [Example 3] (X6-[Thr(3ξ)][Dab][Dab][Dab][dF]L[Dab][Dab][Thr(3ξ)]; lactam 3-C),4 µg/mL,4 µg/mL,4 µg/mL,,,
CCCC(C)OC(=O)CCC(=O)N1CCNCC1C(=O)N[C@H](C(=O)N[C@@H](CCN)C(=O)N[C@H]1CCNC(=O)[C@H](C(C)O)NC(=O)[C@H](CCN)NC(=O)[C@H](CCN)NC(=O)[C@H](CC(C)C)NC(=O)[C@@H](Cc2ccccc2)NC(=O)[C@H](CCN)NC1=O)C(C)O (stereo partly drawn) [Example 31] (X2-[X10][Thr(3ξ)][Dab][Dab][Dab][dF]L[Dab][Dab][Thr(3ξ)]; lactam 4-C),8 µg/mL,8 µg/mL,8 µg/mL,,,

# More lines, main results first:
"Antibacterial activity (MIC) P. aeruginosa PAE 1001 ([1]; PAE 1001, 24 h)","Antibacterial activity (MIC) E. coli WECO 1003 ([2]; WECO 1003, 24 h)","Antibacterial activity (MIC) K. pneumoniae KPN1004 ([3]; KPN1004, 24 h)",SMILES,"Antibacterial activity (MIC) P. aeruginosa PAE 1001 [1, 4]","Antibacterial activity (MIC) E. coli WECO 1003 [2, 4]","Antibacterial activity (MIC) K. pneumoniae KPN1004 [3, 4]"
8 µg/mL,8 µg/mL,>32 µg/mL,CC(=O)O[C@@H](CCN)C(=O)N[C@H](C(=O)N[C@@H](CCN)C(=O)N[C@H]1CCNC(=O)[C@H](C(C)O)NC(=O)[C@H](CCN)NC(=O)[C@H](CCN)NC(=O)[C@H](CC(C)C)NC(=O)[C@@H](Cc2ccccc2)NC(=O)[C@H](CCN)NC1=O)C(C)O (stereo partly drawn) [Example 43] (X7-[Thr(3ξ)][Dab][Dab][Dab][dF]L[Dab][Dab][Thr(3ξ)]; lactam 3-C),,,
4 µg/mL,4 µg/mL,4 µg/mL,CCC(C)(C)C(=O)OCCC(=O)O[C@@H](CCN)C(=O)N[C@H](C(=O)N[C@@H](CCN)C(=O)N[C@H]1CCNC(=O)[C@H](C(C)O)NC(=O)[C@H](CCN)NC(=O)[C@H](CCN)NC(=O)[C@H](CC(C)C)NC(=O)[C@@H](Cc2ccccc2)NC(=O)[C@H](CCN)NC1=O)C(C)O (stereo partly drawn) [Example 34] (X9-[Thr(3ξ)][Dab][Dab][Dab][dF]L[Dab][Dab][Thr(3ξ)]; lactam 3-C),,,
4 µg/mL,1 µg/mL,4 µg/mL,CCC(C)(C)C(=O)OCCC(=O)N[C@@H](CN)C(=O)N[C@H](C(=O)N[C@@H](CCN)C(=O)N[C@H]1CCNC(=O)[C@H](C(C)O)NC(=O)[C@H](CCN)NC(=O)[C@H](CCN)NC(=O)[C@H](CC(C)C)NC(=O)[C@@H](Cc2ccccc2)NC(=O)[C@H](CCN)NC1=O)C(C)O (stereo partly drawn) [Example 35] (X1-[Dap][Thr(3ξ)][Dab][Dab][Dab][dF]L[Dab][Dab][Thr(3ξ)]; lactam 4-C),,,
